# “And” between values parts separate entries of the source, which are not always exact repeats. Equal entries are not always repeated.
# Columns and labels:
# Details in all cases: at 1 µM
# [1] = target: T1, Inhibitor of nuclear factor kappa-B kinase subunit alpha (Homo sapiens) (UniProt O15111)
# T1 sequence (whole entry): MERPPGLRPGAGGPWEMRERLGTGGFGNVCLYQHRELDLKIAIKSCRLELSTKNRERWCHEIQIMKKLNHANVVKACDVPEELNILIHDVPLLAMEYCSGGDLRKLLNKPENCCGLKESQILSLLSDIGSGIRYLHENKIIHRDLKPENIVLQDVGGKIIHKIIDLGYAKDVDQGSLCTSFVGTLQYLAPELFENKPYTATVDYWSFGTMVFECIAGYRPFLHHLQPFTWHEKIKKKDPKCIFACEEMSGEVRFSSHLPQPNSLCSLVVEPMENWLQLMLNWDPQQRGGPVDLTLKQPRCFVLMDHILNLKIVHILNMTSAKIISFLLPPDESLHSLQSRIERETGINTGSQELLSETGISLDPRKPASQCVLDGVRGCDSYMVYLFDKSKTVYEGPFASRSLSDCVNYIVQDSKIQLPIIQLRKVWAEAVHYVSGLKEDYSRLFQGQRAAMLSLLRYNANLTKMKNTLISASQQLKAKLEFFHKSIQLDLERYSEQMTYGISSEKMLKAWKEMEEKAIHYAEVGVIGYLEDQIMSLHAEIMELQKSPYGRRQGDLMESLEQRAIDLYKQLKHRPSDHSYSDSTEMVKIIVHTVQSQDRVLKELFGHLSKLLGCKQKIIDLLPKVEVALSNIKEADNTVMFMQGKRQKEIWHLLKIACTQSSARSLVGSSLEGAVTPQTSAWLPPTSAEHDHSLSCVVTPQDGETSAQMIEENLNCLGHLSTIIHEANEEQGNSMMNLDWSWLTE
# [2] = target: T2, Inhibitor of nuclear factor kappa-B kinase subunit beta (Homo sapiens) (UniProt O14920)
# T2 sequence (whole entry): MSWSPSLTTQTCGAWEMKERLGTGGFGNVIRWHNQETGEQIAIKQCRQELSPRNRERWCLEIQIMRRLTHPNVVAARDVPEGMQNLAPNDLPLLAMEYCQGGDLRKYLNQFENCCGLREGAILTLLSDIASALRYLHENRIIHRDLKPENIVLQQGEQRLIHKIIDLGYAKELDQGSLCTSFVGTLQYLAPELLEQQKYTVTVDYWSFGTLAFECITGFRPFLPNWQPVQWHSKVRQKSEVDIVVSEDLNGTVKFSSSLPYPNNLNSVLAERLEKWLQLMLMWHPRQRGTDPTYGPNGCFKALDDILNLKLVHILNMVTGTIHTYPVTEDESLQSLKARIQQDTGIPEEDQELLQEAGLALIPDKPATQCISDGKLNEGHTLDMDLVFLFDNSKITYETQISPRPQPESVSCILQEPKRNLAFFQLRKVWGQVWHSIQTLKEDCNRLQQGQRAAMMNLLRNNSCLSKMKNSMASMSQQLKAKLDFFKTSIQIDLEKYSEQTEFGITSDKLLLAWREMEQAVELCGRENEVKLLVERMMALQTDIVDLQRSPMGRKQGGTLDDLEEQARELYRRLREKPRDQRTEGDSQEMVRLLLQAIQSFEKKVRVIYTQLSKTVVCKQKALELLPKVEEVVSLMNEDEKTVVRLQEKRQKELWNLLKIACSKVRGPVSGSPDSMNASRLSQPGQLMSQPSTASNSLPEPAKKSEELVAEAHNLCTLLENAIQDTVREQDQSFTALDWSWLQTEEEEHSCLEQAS
# [3] = target: T3, Serine/threonine-protein kinase TBK1 (Homo sapiens) (UniProt Q9UHD2)
# T3 sequence (whole entry): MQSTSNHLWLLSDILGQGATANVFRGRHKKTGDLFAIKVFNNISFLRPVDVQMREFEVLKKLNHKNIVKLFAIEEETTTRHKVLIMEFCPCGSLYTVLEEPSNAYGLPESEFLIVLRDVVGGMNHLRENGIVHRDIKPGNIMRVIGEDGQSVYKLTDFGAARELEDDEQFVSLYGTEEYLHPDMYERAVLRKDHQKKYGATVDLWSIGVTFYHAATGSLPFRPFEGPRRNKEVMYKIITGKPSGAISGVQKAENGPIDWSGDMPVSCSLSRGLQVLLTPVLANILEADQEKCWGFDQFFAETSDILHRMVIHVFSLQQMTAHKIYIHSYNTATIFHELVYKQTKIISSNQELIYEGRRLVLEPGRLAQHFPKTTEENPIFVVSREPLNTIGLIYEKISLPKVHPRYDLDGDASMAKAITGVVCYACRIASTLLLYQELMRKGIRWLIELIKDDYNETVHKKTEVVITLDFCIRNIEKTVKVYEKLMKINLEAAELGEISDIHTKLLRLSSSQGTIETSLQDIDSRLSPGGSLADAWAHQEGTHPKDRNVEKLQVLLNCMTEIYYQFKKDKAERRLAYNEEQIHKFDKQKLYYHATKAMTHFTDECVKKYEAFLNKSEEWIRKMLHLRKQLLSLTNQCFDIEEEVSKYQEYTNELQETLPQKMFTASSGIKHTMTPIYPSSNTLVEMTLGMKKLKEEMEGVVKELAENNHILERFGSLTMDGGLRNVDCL
SMILES,inhibition [1],inhibition [2],inhibition [3]
COc1cc2ncn(-c3cc(OCc4ccccc4Cl)c(C(N)=O)s3)c2cc1OC,-1%,2% and 1%,56% and 50%
COc1ccc(-c2coc3ncnc(N)c23)cc1,0% and 1%,-3% and -1%,-7% and -5%
CCc1nccc2c1nc(-c1nonc1N)n2CC,12% and 13%,0% and -3%,-2% and 1%
Cc1ccc2c(c1)/C(=N/Nc1ccc(S(N)(=O)=O)cc1)C(=O)N2,9% and -3%,4% and 10%,-2% and 3%
Fc1ccc(-c2nc3n(c2-c2ccncc2)CCS3)cc1,11% and -1%,-2% and 0%,-4% and 3%
Cc1cc(O)cc(C)c1/C=C/c1cncc(C(=O)OC(C)(C)C)c1,-1% and 0%,-1% and -2%,0% and -2%
COc1ccc2ncn(-c3cc(O[C@H](C)c4ccccc4Cl)c(C(N)=O)s3)c2c1,1% and -8%,6% and 3%,0% and -4%
Cc1ccc(C(=O)NC2CCC2)cc1-c1ccc(C(=O)NCC2CC2)cc1,4%,-7% and -4%,-4% and -6%
COc1cc(N2CCN(C(C)C)CC2)ccc1Nc1nc(Nc2ccc(F)cc2C(N)=O)c2cc[nH]c2n1,3%,0% and -4%,16% and 10%
COc1cc2c(cc1Nc1nc(Nc3cccc(F)c3C(N)=O)c3cc[nH]c3n1)N(C(=O)CN1CCN(C(C)C)CC1)CC2,4% and 5%,-1% and -3%,-2% and -6%
CCc1cccc(CC)c1/C=C/c1cncc(C(=O)NC)c1,2% and 1%,-6% and -4%,0% and -2%
CCN1CCC(C(=O)Nc2n[nH]c3nnc(-c4cccc(F)c4F)cc23)CC1,4% and 3%,-2% and -4%,-3% and -6%
COc1ccc(-c2ccc3c(NC(=O)C4CC4)n[nH]c3n2)cc1,1% and 2%,-5%,4% and 5%
NS(=O)(=O)c1ccc(N/N=C2\C(=O)Nc3ccc(C(=O)NCCc4c[nH]cn4)cc32)cc1,7% and 3%,-4% and -2%,32% and 29%
O=C(Nc1n[nH]c2cc(-c3cc(F)ccc3F)ccc12)C1CC1,2%,-2% and -5%,-4% and -2%
COc1c(C(N)=O)cc(-c2ccc(Cl)cc2)cc1-c1ccc(S(N)(=O)=O)cc1,0% and -2%,1%,0% and 1%
Cn1c(-c2nonc2N)nc2cnccc21,27% and 23%,-4% and -2%,-4% and -2%
O=C(O[C@H]1CN[C@H](C#Cc2cc3ncnc(Nc4ccc(OCc5cccc(F)c5)c(Cl)c4)c3s2)C1)N1CCOCC1,-1% and 0%,0% and -1%,1% and 3%
Nc1nonc1-c1nc2cnccc2n1C1CCCCC1,39% and 36%,-7%,36% and 37%

# More lines, now with the values ahead:
inhibition [1],inhibition [2],inhibition [3],SMILES
2% and 4%,-5% and -3%,3% and 2%,CNC(=O)c1sc(-n2cnc3cc(OC)c(OC)cc32)cc1OCc1ccccc1C(F)(F)F
-3% and 14%,1% and 2%,13%,CCS(=O)(=O)c1ccc(OC)c(Nc2ncc(-c3cccc(-c4ccccc4F)c3)o2)c1
2% and 0%,-3% and -1%,0% and 2%,COC(=O)Nc1nc2cc(Oc3ccc(NC(=O)Nc4cccc(Br)c4)cc3)ccc2[nH]1
2% and 21%,-1% and -4%,2% and 1%,COc1cccc(/C=N/Nc2ncnc3c2cnn3-c2cccc(OC)c2)c1
2%,-1% and -3%,-2% and 0%,COc1ccc(-c2nn3ncccc3c2-c2ccnc(Nc3cccc(C(F)(F)F)c3)n2)cc1
8% and 4%,-7% and -1%,-6% and -9%,COc1ccc(-c2nn3ncccc3c2-c2ccnc(Nc3ccc(F)c(F)c3)n2)cc1
0% and -1%,-2% and 0%,-4% and -6%,[O-][S+]1CCN(Cc2ccc(-c3ccc4ncnc(Nc5ccc(OCc6ccccc6)c(Cl)c5)c4c3)o2)CC1
1% and 2%,-5% and -8%,14% and 13%,CN1CCN(C(=O)c2ccc(NC(=O)Nc3ccc(N(C)c4ccnc(Nc5ccc(CS(C)(=O)=O)cc5)n4)cc3)cc2)CC1
6% and 4%,-3% and -6%,-1% and 1%,Cc1ccc2c(-c3ccnc(Nc4cccc(C(F)(F)F)c4)n3)c(-c3ccccc3)nn2n1
-1% and 0%,-6% and -3%,37% and 39%,COC(=O)c1sc(-n2cnc3cc(OC)c(OC)cc32)cc1OCc1ccccc1C(F)(F)F
0% and -1%,1% and 0%,0% and 3%,NC(=O)c1sc(-n2cnc3ccccc32)cc1OCc1ccccc1Br
3% and -7%,-3% and -1%,5% and 7%,Nc1nc(-c2cccc(Cl)c2)c(-c2ccc3ncccc3n2)s1
1% and 2%,-4% and 0%,75% and 71%,COc1cc(Nc2ncc3c(C)nc(-c4cccc(Oc5ccccc5)c4)n3n2)cc(OC)c1OC
6% and 5%,-5% and -8%,0% and 1%,Nc1nccc(-c2c(-c3ccc(F)cc3)ncn2CCCN2CCOCC2)n1
4% and -1%,-1%,51% and 43%,CCOc1ccc2c(-c3ccnc(Nc4cc(OC)cc(C(F)(F)F)c4)n3)cnn2n1
-2%,-1% and 0%,0%,Nc1ncc(-c2cccc(S(N)(=O)=O)c2)c2scc(-c3ccc(F)c(Cl)c3)c12
-7%,2% and 3%,14% and 20%,O=C(O[C@H]1CN[C@H](C#Cc2cc3ncnc(Nc4ccc(Cc5ccccc5)cc4)c3s2)C1)N1CCOCC1
4% and 10%,-2% and -3%,0% and -2%,Nc1nccc(-c2c(-c3ccc(F)cc3)ncn2C2CCC(O)CC2)n1 (stereo unspecified)
13% and 12%,-6% and -5%,6% and 7%,CCn1c(-c2nonc2N)nc2c(C#CC(C)(C)O)nc(OC[C@@H](N)c3ccccc3)cc21
1% and -1%,-2% and -3%,4%,N#Cc1cccc(Nc2ncc(-c3ccccc3)o2)c1
4% and 5%,6% and 0%,-5% and -3%,CC1=C(C(=O)Nc2ccc3[nH]nc(C)c3c2)C(c2ccc(C(F)(F)F)cc2)CC(=O)N1 (stereo unspecified)
3% and 2%,-1% and -2%,0% and 1%,CS(=O)(=O)CCNCc1ccc(-c2ccc3ncnc(Nc4ccc(OCc5ccccc5)c(Br)c4)c3c2)o1
-5% and -4%,1% and 2%,17% and 7%,FC(F)(F)c1cccc(Nc2nccc(-c3cnn4nc(-c5ccccc5)ccc34)n2)c1

# — ChEMBL document CHEMBL2007661, “Compounds: GSK PKIS; Assays: UNC Frye lab” (2012)
